This note sets out measurements from a melting point compilation (Tetko et al.; mined from patent text by program, amines drawn as free bases though some values may be those of a salt).

Where only a bound is given, the exact number is not on record here.

The melting point is the temperature, or range, at which the solid turns liquid.

For `CCOC(=O)c1cn2c3c(c(F)c(Cl)cc3c1=O)OCC2C` (centres undefined), the melting point was in the range of 263 to 264 °C.

`O=C1c2ccccc2C(=O)N1Cc1cnccn1` showed a melting point of 141 to 143 °C.

In turn, `CC12CCCc3cc(NC(=O)c4ccc(C(=O)O)cn4)cc(c31)CCC2` came in with a melting point of 212 to 213 °C.

`O=C(O)C1CCC(c2ccc(OCc3ccc4ccccc4n3)cc2)(c2ccc(OCc3ccc4ccccc4n3)cc2)CC1` yielded a melting point of 194 to 199 °C.

Turning to `Cc1nc2ccc(S(=O)(=O)n3c(CCCC(=O)O)cc4nc(Cl)ccc43)cc2s1`, the melting point was 184 °C.

Regarding `O=S(=O)(c1ccccc1)c1ccccn1`, the melting point was 90 to 91 °C.

For `CCOC(=O)c1cnc2c(OCc3ccccc3)c(F)c(F)cc2c1O`, the melting point was 200 to 201 °C.

`O=C1c2cccc3c([N+](=O)[O-])ccc(c23)C(=O)N1O` returned a melting point of 255 to 260 °C.

For the molecule `COC(=O)c1c(-c2cc3ccccc3o2)ccc2ccccc12`, the melting point is 111 to 112 °C.

As to `COc1ccc(-c2cc(=S)n(CC=Cc3ccc(F)cc3F)nc2-c2ccc(OC)cc2)cc1`, the melting point is 141 °C.

In turn, `NC(C=C(CCCCO)CP(=O)(O)O)C(=O)O` (centres undefined) had a melting point of 152 to 155 °C.

`N#Cc1cnc(-c2c(Cl)cc(C(F)(F)F)cc2Cl)[nH]1` returned a melting point of 210 to 212 °C.

`CSc1sc(-c2ccno2)c2c1C(=O)CC(C)(C)C2`: the melting point was 143 to 145 °C.

Molecule `Nc1ncc(Cl)c(CCl)c1Cl` returned a melting point of 124 to 126 °C.

The molecule `CSC1(Cl)C(=O)Nc2ccc(C(F)(F)F)cc21` (centres undefined) yielded a melting point of 191 to 193 °C.

`O=C(O)CCCCCSc1ccc(NS(=O)(=O)c2ccc(Cl)cc2)cc1`: the melting point lay in the range of 160 to 163 °C.

As for `CCOC(=O)COc1ccc(C(=O)Nc2cc(Cl)ccc2Sc2ccccc2-c2nnn[nH]2)cc1`, the melting point is 206 to 208 °C.

Molecule `CNC(=S)NS(=O)(=O)c1cc(CCNC(=O)C=Cc2cccs2)ccc1OCC1CCCO1` (centres undefined) gave a melting point of 78 °C.

In the case of `Oc1ncnc2c1cnn2C1OC(COCc2ccccc2)C(OCc2ccccc2)C1OCc1ccccc1` (centres undefined), the melting point is 204 °C.

For `NC(=O)CN(CCCc1ccc(F)cc1)C1CCC(c2ccc3[nH]c(=O)oc3c2)CC1` (centres undefined), the melting point lay in the range of 266 to 270 °C.

In turn, `CC1Cc2cc(OCc3ccccc3)c(Cl)c(Cl)c2C1=O` (centres undefined) returned a melting point of 153 to 155 °C.

`CC12CCC(C(=Cc3ccc(C(=O)O)cc3)C1=O)C2(C)C` (centres undefined) gave a melting point of 240 °C.

As for `CNC(=O)C(Cc1ccc(OC)cc1)NC(=O)C(C)(CC(C)C)c1cccc(C(F)(F)F)c1S` (centres undefined), the melting point fell in the range of 88 to 102 °C.

Consider `O=[N+]([O-])c1ccc(NS(=O)(=O)c2ccccc2)c(Cl)c1`, for which the melting point is 155 to 157 °C.

Turning to `CCOC(=O)c1csnc1-c1ccc(Cl)cc1`, the melting point lay within 70.5 to 71.5 °C.

With `C=C(Cc1ccccc1)C(=O)NN1CCSCC1`, the melting point was 141 °C.

`CCCCCCCCCCCCS(=O)(=O)CCOc1ccc(C/C=C(\OC(C)=O)C(F)(F)F)cc1`: the melting point is 48 to 49 °C.

In turn, `COC(=S)c1cccc2nc(C)n(Cc3ccc(-c4ccccc4-c4nc(=O)o[nH]4)cc3)c12` showed a melting point of 231 to 232 °C.

The molecule `COc1ccc(C(=O)N2c3ccccc3C(n3c4ccccc4c4ccccc43)=CC2C)cc1OC` (centres undefined) had a melting point of 184 to 185 °C.

`COCC(=O)c1c[nH]c2ncc(-c3cc(OC)c(OC)c(OC)c3)nc12` gave a melting point of 229 to 230 °C.

The molecule `CCN(CC)CCNC(=O)c1cccc2c(=O)c3ccc(I)cc3[nH]c12` gave a melting point of 208 to 210 °C.

In turn, `CCC(Sc1ccc(OC)c(Cl)c1Cl)C(=O)O` (centres undefined) returned a melting point of 143 to 145 °C.

`OCc1c(Cl)cc(Cl)cc1C(O)(Cn1ccnc1)c1ccc(Cl)cc1Cl` (centres undefined) yielded a melting point of 208 to 211 °C.

`COC(=O)c1sc2cc(C(F)(F)F)ccc2c1NC(C)=O` displayed a melting point of 204 to 205 °C.

`Cc1ccc(N2C(=O)C(O)=C(C(=O)c3ccc(N4CCOCC4)cc3)C2c2ccc(OC(F)(F)F)cc2)nn1` (centres undefined) yielded a melting point of 234 °C.

On to `O=C(Cc1ccncc1)[N+]1([O-])CCC(=C2c3ccc(Cl)cc3CCc3cccnc32)CC1` (centres undefined), for which the melting point lay within 128 to 130 °C.

`COc1ccccc1-n1c(=O)[nH]c2c(C(N)=O)nc(C3CCCC3)nc21`: the melting point is 244 to 246 °C.

In turn, `CCOC(=O)C1(CNC(=O)C=CC(Cc2ccc3ccccc3c2)N(C)C(=O)c2cc(C(F)(F)F)cc(C(F)(F)F)c2)CCCC1` (centres undefined) displayed a melting point of 136 to 138 °C.

`COc1ccc2c(c1)N(CCNC(C)=O)CC(c1ccccc1)O2` (centres undefined): the melting point fell in the range of 153 to 154 °C.

For `O=C(c1ccccc1Cl)c1cc2c(cc1NC=C[N+](=O)[O-])CCC2`, the melting point lay in the range of 225 to 226 °C.

In turn, `C=C(C)C(=O)Nc1nc(CCC)n(Cc2ccc(-c3ccccc3-c3nnn[nH]3)cc2)c1C(=O)OCC` came in with a melting point of 134 to 136 °C.

As to `Cc1nc(N)nc(N)c1N1CCN(c2ccc(C#N)cc2)CC1`, the melting point was > 300 °C.

In the case of `O=C(O)c1cccc(-c2cc(-c3ccc(Cl)cc3)no2)c1`, the melting point was in the range of 265 to 266 °C.

The molecule `c1cnc2[nH]c(-c3ccc(C4OCCCO4)cc3)cc2n1` displayed a melting point of 288 to 289 °C.

Consider `CCC(c1oc2ccccc2c(=O)c1-c1ccccc1F)n1cnc2c(N)ncnc21` (centres undefined), for which the melting point was 160 to 163 °C.

Turning to `CCOc1cc(C)c(NCCO)cc1[N+](=O)[O-]`, the melting point was determined as 119 °C.

As to `CN1c2ccncc2NC(CCc2ccccc2)c2cccn21` (centres undefined), the melting point lay in the range of 92 to 94 °C.

Molecule `CC(C)[C@H](NC(=O)c1ccccc1)C(=O)NCC(=O)N[C@@H](CCCNC(=N)N)C(=O)Nc1ccc2ncccc2c1` came in with a melting point of 167 to 169 °C.

`O=C(O)c1ccc2c(c1)Sc1ccc(Cl)cc1C2` came in with a melting point of 294 to 295 °C.

On to `CC(=O)N(C)c1ccc(OCc2nc3ccccc3s2)cc1`, for which the melting point was 119 to 120 °C.

Molecule `CSc1nccc(Oc2ccc(NC(=O)c3cccc(OC(C)(C)C)c3)c3ccccc23)n1` registered a melting point of 135 to 136 °C.

`CC(=O)OC/C(=C(\C(=O)O)c1ccc(F)cc1)c1ccc(S(C)(=O)=O)cc1` yielded a melting point of 187 °C.

Take `COc1cc2c(cc1S(C)(=O)=O)CCN(C(C)=O)CC2`: the melting point is 159 to 162 °C.

`COc1cc(C=O)ccc1OCc1sc(-c2ccccc2)nc1C` returned a melting point of 118 to 119 °C.

`CC(C)(C)C1CCC(OO)(OO)CC1` returned a melting point of 83 to 84 °C.

For `CCCCOc1cc(C(=O)O)cc(N)c1C(=O)c1ccccc1`, the melting point lay within 202 to 204 °C.

`COc1ccc(CN=Nc2c(O)c(O)c(N=NCc3ccc(OC)cc3)c3ccccc23)cc1` showed a melting point of 245 to 251 °C.

`O=C(N[C@H](Cc1ccc(C(F)(F)F)cc1)[C@@H](O)c1ccc(F)cc1)C1CCCCC1` (racemic) returned a melting point of 203 to 204 °C.

Molecule `OCCCc1cc(-c2ccc(C(F)(F)F)cc2)no1` showed a melting point of 59 to 60 °C.

With `Cc1c(Cl)ccc([N+](=O)[O-])c1N`, the melting point was in the range of 164 to 165 °C.

In turn, `O=P(O)(O)OC(Cn1cncn1)C(c1ccc(F)cc1F)n1cncn1` (centres undefined) returned a melting point of 93 °C.

With `COC(=O)c1c(C)cc(O)c(Cl)c1O`, the melting point is 122 to 125 °C.

Consider `Cc1oc(-c2ccccc2)nc1COc1ccc(CON2C(=O)c3ccccc3C2=O)cc1`, for which the melting point lay in the range of 155 to 156 °C.

Molecule `C#CC(CC)(CC)NC(N)=O` gave a melting point of 108 °C.

Molecule `NC(=O)c1sc2nccc(N3CCCC3)c2c1N` registered a melting point of 275 to 283 °C.

In turn, `ON=c1cc(-c2cc3cccn3cn2)oc2ccc(OCCOc3ccncc3)cc12` came in with a melting point of 198 to 200 °C.

Turning to `Cn1cc(C(N)=O)c(=O)c2ccc(C(F)(F)F)cc21`, the melting point is 288 to 292 °C.

Consider `Cc1ccc(S(=O)(=O)N(C)c2ccccc(N)c2=O)cc1`, for which the melting point fell in the range of 221 to 222 °C.

Molecule `CN1C(=O)CCC1(O)c1ccc(Cl)c(S(=O)(=O)Nc2cc(C(C)(C)C)c(O)c(C(C)(C)C)c2)c1` (centres undefined) gave a melting point of 120 to 130 °C.

Molecule `COC(=O)CC(O)CCSc1cc(C(C)(C)C)c(O)c(C(C)(C)C)c1` (centres undefined) gave a melting point of 77 to 80 °C.

`N#Cc1c(N2CCN(C(=O)c3ccco3)CC2)c2cc(F)ccc2n(Cc2ccccc2)c1=O` came in with a melting point of 209 °C.

The molecule `CCCC(=O)c1cnc2cc(COC(=O)c3ccccc3)ccc2c1Cl` gave a melting point of 66 to 68 °C.

Molecule `CCCc1cc2c(c3ccc(OC)cc13)OCc1cc(OC)ccc1-2` came in with a melting point of 88 to 90 °C.

For the molecule `COc1ccc(/C=C(\C#N)c2cccc(F)c2)cc1OC1CCCC1`, the melting point fell in the range of 114 to 116 °C.

`O=C(O)c1cccc(CC2COc3ccc(OCc4ccccc4)cc3C2)c1` (single isomer, unassigned; (+)) returned a melting point of 128 to 130 °C.

`N#Cc1ccc(CCNC(=O)CC(=O)O)cc1` showed a melting point of 137 to 139 °C.

The molecule `O=C(NC12CC3CC(CC(C3)C1)C2)c1ncn(-c2ccccc2)c1Br` displayed a melting point of 229 to 232 °C.

Molecule `Nc1cc2c(Nc3ccc(Cl)c(Cl)c3)ncnc2cn1` gave a melting point of 277 to 280 °C.

The molecule `CC[C@H]1[C@@H](O)[C@H](C)C(=O)N1c1ccc(C#N)c(C(F)(F)F)c1` displayed a melting point of 113 to 119 °C.

Turning to `COc1ccc(-c2cc(=O)cc(C(N)=O)o2)cc1`, the melting point fell in the range of 303 to 308 °C.

Turning to `CC(C)c1cn2nc(Cl)ccc2n1`, the melting point fell in the range of 106 to 108 °C.

Molecule `COc1cc2c(cc1O)C(=O)CCC2` came in with a melting point of 147 to 148 °C.

On to `CC(C)OC1CCC(=O)N1` (centres undefined), for which the melting point was 68 to 71 °C.

Molecule `CC(C)OC(=O)n1cc(F)c(N)nc1=O` gave a melting point of 217 to 219 °C.

In turn, `CC(C)CNC(=O)/C=C/C=C/CCCCCCOCc1cccc(C(F)(F)F)c1` gave a melting point of 48 to 50 °C.

For the molecule `CC(C)[Si](C#Cc1ccc(-c2nc3cc(C#N)c(C#N)cc3[nH]2)cc1)(C(C)C)C(C)C`, the melting point was 347 to 348 °C.

Molecule `COc1ccccc1C(Cl)=C(Cl)n1ccnc1` showed a melting point of 101 °C.

The molecule `O=C(Nc1ccc(O)cc1)c1ccc(O)cc1` came in with a melting point of 180 to 185 °C.

The molecule `CCC(NS(=O)(=O)c1ccc(Cl)cc1)c1ccccc1` (centres undefined) displayed a melting point of 140 to 142 °C.
